According to patent US6914045B2, “Glycopeptide antibiotics” (Wyeth Holdings Corporation, priority 2001, dated 2005):
≈ marks a conversion by molar mass, not a printed value.

What was measured:
[1] = test system: Staphylococcus aureus-SMITH (GC 4543); assay: acute lethal infection in mice; assay type: in vivo; settings: acute lethal infection, female CD-1 mice, intraperitoneal challenge, intravenous 30 min. after infection, 7 day survival
Method in brief: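 Protocol: bacteria suspended in trypticase soy broth or hog gastric mucin injected ip into female CD-1 mice at a level killing untreated controls in 24-48 hr; compound given iv in saline or 5% dextrose 30 min post-challenge; five mice per dose; ED50 derived from pooled 7 day survival of three runs.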

Escherichia coli = assay: in vitro antibacterial evaluation, MIC by broth dilution; assay type: cell-based; settings: 18 hours at 35° C.
Method in brief: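 MIC is the lowest antibiotic concentration (tested 64-0.06 μg/mL) preventing growth of a 5×10^5 CFU/mL inoculum. Determined by broth dilution in Mueller-Hinton II medium following NCCLS standard M7-A2.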

Enterococcus sp. = assay: as above; assay type: cell-based; settings: broth dilution, 18 hours at 35° C.
Method in brief: (§1)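 MIC, the lowest antibiotic concentration preventing growth, was read across 64-0.06 μg/mL with 5×10^5 CFU/mL inoculum. Method followed NCCLS M7-A2 broth dilution using Mueller-Hinton II; Gram-positive strains covered recent methicillin-, penicillin- and/or vancomycin-resistant clinical isolates.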

Streptococcus sp. = assay: as above; assay type: cell-based; settings: broth dilution, 18 hours at 35° C.
Method in brief: as §1

Staphylococcus sp. = assay: as above; assay type: cell-based; settings: broth dilution, 18 hours at 35° C.
Method in brief: as §1

[2] = anatomic pathology (histopathology of heart and kidney) in mice; assay type: in vivo; settings: CD-1 mice, 20 mg/kg intravenously daily for 9 days, necropsy day 10, microscopic histopathology
Procedure: Samples of tissues from necropsied mice were formalin-fixed, paraffin-embedded, sectioned, stained with hematoxylin and eosin, and examined microscopically. Histopathologic findings were recorded. These findings were subjectively graded on a scale corresponding to slight, mild, moderate, marked and severe as compared to untreated controls.

CC(c1ccccc1)C1NC(=O)CNC(=O)C(CO)NC(=O)C(C(O)C2CN(Cc3ccc(C(C)(C)C)cc3)C(=N)N2C2OC(CO)C(O)C(O)C2O)NC(=O)C(C(O)C2CNC(=N)N2)NC(=O)C(Cc2ccc(OC3OC(CO)C(OC4OC5COC6(OC5C(O)C4O)C4CC5CC(C4)CC6C5)C(O)C3O)cc2)NC1=O (centres unmarked) [Example 77]
median effective dose (ED50), Staphylococcus aureus-SMITH (GC 4543) [1]: 4 mg/kg | MIC Escherichia coli (ATCC 25922) (Escherichia coli): >128 mg/L | MIC Escherichia coli (GC 4559) (Escherichia coli): >128 mg/L | MIC Escherichia coli (GC 4560) (Escherichia coli): 4 mg/L (≈ 2.54 µM) | MIC Enterococcus avium (GC 4558) (Enterococcus sp.; Enterococcus avium (GC 4558)): 4 mg/L (≈ 2.54 µM) | MIC Enterococcus faecalis (ATCC 29212) (Enterococcus sp.; Enterococcus faecalis (ATCC 29212)): 16 mg/L (≈ 10.2 µM) | MIC Enterococcus faecalis (GC 4552) (Enterococcus sp.; Enterococcus faecalis (GC 4552)): 16 mg/L (≈ 10.2 µM) | MIC Enterococcus faecalis (GC 4553) (Enterococcus sp.; Enterococcus faecalis (GC 4553)): 8 mg/L (≈ 5.08 µM) | MIC Enterococcus faecalis (GC 6189) (Enterococcus sp.; Enterococcus faecalis (GC 6189)): 16 mg/L (≈ 10.2 µM) | MIC Enterococcus faecium (GC 2243) (Enterococcus sp.; Enterococcus faecium (GC 2243)): 8 mg/L (≈ 5.08 µM) | MIC Enterococcus faecium (GC 4556) (Enterococcus sp.; Enterococcus faecium (GC 4556)): 16 mg/L (≈ 10.2 µM) | MIC Enterococcus faecium (GC 4557) (Enterococcus sp.; Enterococcus faecium (GC 4557)): 1 to 2 mg/L | MIC Enterococcus avium (GC 4558) (Enterococcus sp.): 4 mg/L (≈ 2.54 µM) | MIC Enterococcus faecalis (ATCC 29212) (Enterococcus sp.): 16 mg/L (≈ 10.2 µM) | MIC Enterococcus faecalis (GC 2242) (Enterococcus sp.): 16 mg/L (≈ 10.2 µM) | MIC Enterococcus faecalis (GC 2691) (Enterococcus sp.): 16 mg/L (≈ 10.2 µM) | MIC Enterococcus faecalis (GC 3059) (Enterococcus sp.): 16 mg/L (≈ 10.2 µM) | MIC Enterococcus faecalis (GC 4552) (Enterococcus sp.): 16 mg/L (≈ 10.2 µM) | MIC Enterococcus faecalis (GC 4553) (Enterococcus sp.): 8 mg/L (≈ 5.08 µM) | MIC Enterococcus faecalis (GC 4554) (Enterococcus sp.): 16 to 32 mg/L | MIC Enterococcus faecalis (GC 6189) (Enterococcus sp.): 16 mg/L (≈ 10.2 µM) | MIC Enterococcus faecium (GC 2243) (Enterococcus sp.): 8 mg/L (≈ 5.08 µM) | MIC Enterococcus faecium (GC 4556) (Enterococcus sp.): 16 mg/L (≈ 10.2 µM) | MIC Enterococcus faecium (GC 4557) (Enterococcus sp.): 1 to 2 mg/L | MIC Enterococcus faecalis (GC 2242) (Enterococcus sp.; strain GC 2242): 16 mg/L (≈ 10.2 µM) | MIC Enterococcus faecalis (GC 2691) (Enterococcus sp.; strain GC 2691): 16 mg/L (≈ 10.2 µM) | MIC Enterococcus faecalis (GC 3059) (Enterococcus sp.; strain GC 3059): 16 mg/L (≈ 10.2 µM) | MIC Streptococcus agalactiae (GC 4564) (Streptococcus sp.): 1 mg/L (≈ 0.635 µM) | MIC Streptococcus pneumoniae (ATCC 6301) (Streptococcus sp.): 2 mg/L (≈ 1.27 µM) | MIC Streptococcus pneumoniae (GC 1894) (Streptococcus sp.): 0.25 to 0.5 mg/L | MIC Streptococcus pneumoniae (GC 4565) (Streptococcus sp.): 2 to 4 mg/L | MIC Streptococcus pyogenes (GC 4563) (Streptococcus sp.): 1 mg/L (≈ 0.635 µM) | MIC Streptococcus pneumoniae (ATCC 6301) (Streptococcus sp.; strain ATCC 6301): 2 mg/L (≈ 1.27 µM) | MIC Streptococcus pyogenes (GC 4563) (Streptococcus sp.; strain GC 4563): 1 mg/L (≈ 0.635 µM) | MIC Streptococcus agalactiae (GC 4564) (Streptococcus sp.; strain GC 4564): 1 mg/L (≈ 0.635 µM) | MIC Streptococcus pneumoniae (GC 4565) (Streptococcus sp.; strain GC 4565): 2 to 4 mg/L | MIC Staphylococcus aureus (GC 1131) (Staphylococcus sp.; strain GC 1131): 16 mg/L (≈ 10.2 µM) | MIC Staphylococcus aureus (GC 3053) (Staphylococcus sp.; strain GC 3053): 16 mg/L (≈ 10.2 µM) | MIC Staphylococcus aureus (GC 4541) (Staphylococcus sp.; strain GC 4541): 4 to 8 mg/L | MIC Staphylococcus aureus-SMITH (GC 4543) (Staphylococcus sp.; strain GC 4543): 8 mg/L (≈ 5.08 µM) | MIC Staphylococcus aureus (GC 4544) (Staphylococcus sp.; strain GC 4544): 16 mg/L (≈ 10.2 µM) | MIC Staphylococcus aureus (GC 4545) (Staphylococcus sp.; strain GC 4545): 8 mg/L (≈ 5.08 µM) | MIC Staphylococcus haemolyticus (GC 4546) (Staphylococcus sp.; strain GC 4546): 4 to 8 mg/L | MIC Coagulase Negative Staphylococcus (GC 4547) (Staphylococcus sp.; strain GC 4547): 4 mg/L (≈ 2.54 µM) | MIC Coagulase Negative Staphylococcus (GC 4548) (Staphylococcus sp.; strain GC 4548): 4 mg/L (≈ 2.54 µM) | MIC Coagulase Negative Staphylococcus (GC 4549) (Staphylococcus sp.; strain GC 4549): 4 to 8 mg/L | MIC Coagulase Negative Staphylococcus (GC 4551) (Staphylococcus sp.; strain GC 4551): 8 mg/L (≈ 5.08 µM) | MIC Coagulase Negative Staphylococcus (GC 6257) (Staphylococcus sp.; strain GC 6257): 2 mg/L (≈ 1.27 µM) | Anatomical Pathology (Day 10), Heart [2]: 0 | Anatomical Pathology (Day 10), Kidney [2]: 0
